In ChEMBL document CHEMBL1156316, “Sterol effect on interaction between amphidinol 3 and liposomal membrane as evidenced by surface plasmon resonance” (Bioorg Med Chem Lett, 2010):

Key:
Lipid bilayer [1] = assay: Binding affinity to synthetic palmitoyl-oleoyl-phosphatidylcholine liposome assessed as overall equilibrium association constant at 10 uM by surface plasmon resonance assay in presence of 5% cholesterol
Lipid bilayer [2] = assay: Binding affinity to synthetic palmitoyl-oleoyl-phosphatidylcholine liposome assessed as overall equilibrium association constant at 10 uM by surface plasmon resonance assay
Lipid bilayer [3] = assay: Binding affinity to synthetic palmitoyl-oleoyl-phosphatidylcholine liposome assessed as association constant for compound- PPC liposome reorientation complex at 10 uM by surface plasmon resonance assay in presence of 5% ergosterol
Lipid bilayer [4] = assay: Binding affinity to synthetic palmitoyl-oleoyl-phosphatidylcholine liposome at 10 uM by surface plasmon resonance assay in presence of 5% ergosterol
Lipid bilayer [5] = assay: Binding affinity to synthetic palmitoyl-oleoyl-phosphatidylcholine liposome at 10 uM by surface plasmon resonance assay
Lipid bilayer [6] = assay: Binding affinity to synthetic palmitoyl-oleoyl-phosphatidylcholine liposome assessed as overall equilibrium association constant at 10 uM by surface plasmon resonance assay in presence of 5% ergosterol
Lipid bilayer [7] = assay: Binding affinity to synthetic palmitoyl-oleoyl-phosphatidylcholine liposome assessed as association constant for compound- PPC liposome reorientation complex at 10 uM by surface plasmon resonance assay in presence of 5% cholesterol
Lipid bilayer [8] = assay: Binding affinity to synthetic palmitoyl-oleoyl-phosphatidylcholine liposome at 10 uM by surface plasmon resonance assay in presence of 5% cholesterol
Lipid bilayer [9] = assay: Binding affinity to synthetic palmitoyl-oleoyl-phosphatidylcholine liposome assessed as association constant for compound- PPC liposome reorientation complex at 10 uM by surface plasmon resonance assay

C=C/C=C/CC/C=C/C=C/C=C/CC/C=C/[C@@H](O)[C@@H](O)C1O[C@@H]([C@H](O)[C@H](O)C(=C)CCC(O)[C@H]2C[C@@H](O)[C@@H](O)C([C@@H](O)[C@H](O)/C=C(\C)CC[C@H](O)C[C@H](O)[C@@H](O)[C@@H](C)C[C@H](O)[C@@H](O)CCCCCC(O)CCC[C@@H](O)/C=C/C[C@@H](O)/C=C/C[C@H](O)CO)O2)CC(O)C1O (some centres undefined)
KA (Lipid bilayer [1]): 721 10^3/M
KA (Lipid bilayer [2]): 0.764 10^3/M
KA (Lipid bilayer [3]): 28.6 10^3/M
KA (Lipid bilayer [4]): 143 10^3/M
KA (Lipid bilayer [5]): 0.901 10^3/M
KA (Lipid bilayer [6]): 3970 10^3/M
KA (Lipid bilayer [7]): 3.92 10^3/M
KA (Lipid bilayer [8]): 180 10^3/M
KA (Lipid bilayer [9]): 0.93 10^3/M
